# Experimental data: ChEMBL document CHEMBL1137368, “Antitumor activity of substituted E-3-(3,4,5-trimethoxybenzylidene)-1,3-dihydroindol-2-ones1” (2006)
# Counter-ions that a name gives are not always drawn.
# Key:
# Assay type in all cases: functional
# Settings in all cases: Homo sapiens; for TGI: read-out: pTGI (converted)
# [1] = test system: Panel leukemia (Carcinoma cell lines); assay: Anticancer activity against leukemia cancer cell lines of NCI60 panel
# [2] = test system: Panel melanoma (Carcinoma cell lines); assay: Anticancer activity against melanoma cancer cell lines of NCI60 panel
# [3] = test system: Panel CNS (Carcinoma cell lines); assay: Anticancer activity against CNS cancer cell lines of NCI60 panel
# [4] = test system: Panel breast (Carcinoma cell lines); assay: Anticancer activity against breast cancer cell lines of NCI60 panel
# [5] = test system: Panel colon (Carcinoma cell lines); assay: Anticancer activity against colon cancer cell lines of NCI60 panel
# [6] = test system: Panel prostate (Carcinoma cell lines); assay: Anticancer activity against prostate cancer cell lines of NCI60 panel
# [7] = test system: Panel ovarian (Carcinoma cell lines); assay: Anticancer activity against ovarian cancer cell lines of NCI60 panel
# NSCLC = assay: Anticancer activity against NSCLC cancer cell lines of NCI60 panel
# [8] = test system: Panel renal (Carcinoma cell lines); assay: Anticancer activity against renal cancer cell lines of NCI60 panel
Compound,GI50 [1] [µM],TGI [1] [µM],GI50 [2] [µM],LC50 [2] [µM],TGI [2] [µM],GI50 [3] [µM],LC50 [3] [µM],TGI [3] [µM],GI50 [4] [µM],TGI [4] [µM],GI50 [5] [µM],LC50 [5] [µM],TGI [5] [µM],GI50 [6] [µM],GI50 [7] [µM],TGI [7] [µM],GI50 (NSCLC) [µM],TGI (NSCLC) [µM],GI50 [8] [µM],TGI [8] [µM],also measured
COc1ccc2c(c1)/C(=C\c1cc(OC)c(OC)c(OC)c1)C(=O)N2,0.0871,11.2,0.891,95.5,41.7,0.417,95.5,12.6,0.398,14.8,0.182,83.2,32.4,0.692,0.676,15.5,1.12,58.9,0.575,19.1,LC50 [4]: 50.1 µM; LC50 [7]: 41.7 µM; LC50 [8]: 91.2 µM
COc1cc(/C=C2/C(=O)Nc3cccc(Cl)c32)cc(OC)c1OC,2.4,16.2,,,,61.7,,97.7,85.1,,,,,,89.1,,75.9,,61.7,,
COc1cc2c(cc1C)NC(=O)/C2=C/c1cc(OC)c(OC)c(OC)c1,18.2,52.5,74.1,,,41.7,,83.2,,93.3,85.1,,,,75.9,,57.5,81.3,55,89.1,
COc1cc(/C=C2/C(=O)Nc3ccc(F)cc32)cc(OC)c1OC,14.1,,37.2,,,33.1,,85.1,9.55,87.1,30.9,,,27.5,44.7,,26.9,91.2,34.7,,
COc1cc(/C=C2/C(=O)Nc3ccc(O)cc32)cc(OC)c1OC,3.02,30.9,10,69.2,27.5,8.71,91.2,41.7,9.12,52.5,12.3,83.2,47.9,2.4,14.1,47.9,11.7,40.7,14.1,44.7,LC50 [4]: 97.7 µM; TGI [6]: 19.1 µM; LC50 [7]: 93.3 µM; LC50 (NSCLC): 89.1 µM; LC50 [8]: 83.2 µM
COc1cc(/C=C2/C(=O)Nc3ccccc32)cc(OC)c1OC,7.59,87.1,20,,81.3,12.3,,85.1,19.1,77.6,15.1,,75.9,18.6,24.5,95.5,18.6,85.1,18.6,75.9,
COc1cc(/C=C2/C(=O)N(c3ccccc3)c3ccccc32)cc(OC)c1OC,2.29,14.1,7.41,52.5,20.9,6.03,72.4,30.9,8.32,53.7,5.75,67.6,26.9,3.16,10,32.4,9.33,36.3,5.75,23.4,TGI [6]: 16.2 µM; LC50 [7]: 83.2 µM; LC50 (NSCLC): 83.2 µM; LC50 [8]: 64.6 µM
COc1cc(/C=C2/C(=O)Nc3ccc(Cl)cc32)cc(OC)c1OC,8.71,,28.2,,,17.4,,56.2,15.8,56.2,8.32,,93.3,2.95,17,77.6,20.9,74.1,15.8,64.6,
COc1cc(/C=C2/C(=O)N(C)c3ccccc32)cc(OC)c1OC,7.24,70.8,17.4,,43.7,9.55,,81.3,19.5,77.6,13.5,,61.7,10.5,18.2,81.3,18.2,67.6,12.3,61.7,
CC[C@]1(O)C[C@H]2CN(CCc3c([nH]c4ccccc34)[C@@](C(=O)OC)(c3cc4c(cc3OC)N(C=O)[C@H]3[C@@](O)(C(=O)OC)[C@H](OC(C)=O)[C@]5(CC)C=CCN6CC[C@]43[C@@H]65)C2)C1 [VINCRISTINE SULFATE],0.1,15.8,0.158,,7.94,0.126,,6.31,0.316,7.94,0.1,,3.98,0.126,0.316,20,0.251,15.8,0.316,20,TGI [6]: 6.31 µM
